Experimental data published in EP4364730A1, “PHARMACEUTICAL COMPOSITION COMPRISING L-ACETYL CARNITINE AND BETA-CARYOPHYLLENE” (Chiesi Italia S.p.A., priority 2022, dated 2024).

Tested on: HMC3 cell line
Assay: Cell viability test (MTT assay)
Type: cell-based, Homo sapiens, human
Settings: HMC3 cells, tested 0.039 to 100 µM
Method: The American Type Culture Collection's HMC3 (CRL-3304) cell line was grown in the MEM growth medium supplemented with 10% fetal bovine serum (FBS), 100 U/mL penicillin, and 100 µg/mL streptomycin (complete medium). The cells were kept at 37 °C in a 5% CO2 incubator and grown up to 100% confluence before use. In particular, regarding BCP, cells were treated with this substance at concentrations ranging from 0.039 to 100 µM (9 concentrations). Regarding LAC, cells were treated with this substance at concentrations ranging from 0.06 to 30 mM (9 concentrations). […] The MTT cell viability test was performed by seeding 1 × 10^4 cells/well in a 96-multiwell and grown at 37 °C and 5% CO2. The next day, cells were treated with different concentrations of BCP and LAC and their combinations (Mix). […] The formazane crystals were then solubilized with 100 µL DMSO/well for 15 min and the absorbance was measured at the wavelength of 570 nm using a Multiskan™ GO microplate reader (Thermo Scientific Microplate Spectrophotometer). Finally, the cytotoxicity of the substances in combination was evaluated starting from the maximum non-cytotoxic concentrations of each molecule (BCP and LAC alone) (Table 1).

SMILES: C=C1CC/C=C(\C)CC[C@@H]2[C@@H]1CC2(C)C [BCP, (1R,4E,9S)-4,11,11-trimethyl-8-methylidenebicyclo[7.2.0]undec-4-ene]
- maximum non-cytotoxic concentration: 100 µM
